Data from ChEMBL document CHEMBL1255208, “A class of novel conjugates of substituted purine and Gly-AA-OBzl: synthesis and evaluation of orally analgesic activity” (2010).
Where a SMILES comes first, the peptide text is derived from it. The star is where a group is joined. OBn = c1ccc(CO*)cc1

Assays:
Type in all cases: functional
Mus musculus [1] = test: Analgesic activity in mouse assessed as pain threshold variation at 25 umol/kg, po after 30 mins (RVb = -1 +/- 2.8 %)
Mus musculus [2] = test: Analgesic activity in mouse assessed as pain threshold variation at 25 umol/kg, po after 150 mins (RVb = 3.98 +/- 4.03 %)
Mus musculus [3] = test: Analgesic activity in mouse assessed as pain threshold variation at 25 umol/kg, po after 120 mins (RVb = 0.69 +/- 1.98 %)
Mus musculus [4] = test: Analgesic activity in mouse assessed as pain threshold variation at 25 umol/kg, po after 60 mins (RVb = -6.5 +/- 1.79 %)
Mus musculus [5] = test: Analgesic activity in mouse assessed as pain threshold variation at 25 umol/kg, po after 90 mins (RVb = 0.2 +/- 3.75 %)
Mus musculus [6] = test: Analgesic activity in mouse assessed as pain threshold variation at 25 umol/kg, po after 180 mins (RVb = -5.10 %)
Mus musculus [7] = test: Analgesic activity in mouse assessed as pain threshold variation at 3 umol/kg, po after 90 mins (RVb = 0.17 +/- 0.14 %)
Mus musculus [8] = test: Analgesic activity in mouse assessed as pain threshold variation at 3 umol/kg, po after 30 mins (RVb = 0.13 +/- 0.14 %)
Mus musculus [9] = test: Analgesic activity in mouse assessed as pain threshold variation at 30 umol/kg, po after 30 mins (RVb = 0.13 +/- 0.14 %)
Mus musculus [10] = test: Analgesic activity in mouse assessed as pain threshold variation at 0.3 umol/kg, po after 180 mins (RVb = 0.15 +/- 0.12 %)
Mus musculus [11] = test: Analgesic activity in mouse assessed as pain threshold variation at 3 umol/kg, po after 180 mins (RVb = 0.15 +/- 0.12 %)
Mus musculus [12] = test: Analgesic activity in mouse assessed as pain threshold variation at 0.3 umol/kg, po after 150 mins (RVb = 0.16 +/- 0.13 %)
Mus musculus [13] = test: Analgesic activity in mouse assessed as pain threshold variation at 3 umol/kg, po after 60 mins (RVb = 0.15 +/- 0.16 %)
Mus musculus [14] = test: Analgesic activity in mouse assessed as pain threshold variation at 3 umol/kg, po after 120 mins (RVb = 0.18 +/- 0.15 %)
Mus musculus [15] = test: Analgesic activity in mouse assessed as pain threshold variation at 30 umol/kg, po after 90 mins (RVb = 0.17 +/- 0.14 %)
Mus musculus [16] = test: Analgesic activity in mouse assessed as pain threshold variation at 3 umol/kg, po after 150 mins (RVb = 0.16 +/- 0.13 %)
Mus musculus [17] = test: Analgesic activity in mouse assessed as pain threshold variation at 0.3 umol/kg, po after 120 mins (RVb = 0.18 +/- 0.15 %)
Mus musculus [18] = test: Analgesic activity in mouse assessed as pain threshold variation at 0.3 umol/kg, po after 90 mins (RVb = 0.17 +/- 0.14 %)
Mus musculus [19] = test: Analgesic activity in mouse assessed as pain threshold variation at 30 umol/kg, po after 150 mins (RVb = 0.16 +/- 0.13 %)
Mus musculus [20] = test: Analgesic activity in mouse assessed as pain threshold variation at 0.3 umol/kg, po after 60 mins (RVb = 0.15 +/- 0.16 %)
Mus musculus [21] = test: Analgesic activity in mouse assessed as pain threshold variation at 30 umol/kg, po after 120 mins (RVb = 0.18 +/- 0.15 %)
Mus musculus [22] = test: Analgesic activity in mouse assessed as pain threshold variation at 0.3 umol/kg, po after 30 mins (RVb = 0.13 +/- 0.14 %)
Mus musculus [23] = test: Analgesic activity in mouse assessed as pain threshold variation at 30 umol/kg, po after 180 mins (RVb = 0.15 +/- 0.12 %)
Mus musculus [24] = test: Analgesic activity in mouse assessed as pain threshold variation at 30 umol/kg, po after 60 mins (RVb = 0.15 +/- 0.16 %)

In the case of `C[C@@H](O)[C@H](NC(=O)CN(c1nc(Cl)nc2c1ncn2C1CCCCO1)C1CC1)C(=O)OCc1ccccc1` (stereo not given in full), the Activity (Mus musculus [1]) is reported as 23.61%, the Activity (Mus musculus [2]) is reported as 6.53% and the Activity (Mus musculus [3]) is reported as 10.91%. It also gave an Activity (Mus musculus [4]) of 28.36%, an Activity (Mus musculus [5]) of 23.38% and an Activity (Mus musculus [6]) of 2.34%.

With `CC(C)[C@H](NC(=O)CN(c1nc(Cl)nc2c1ncn2C1CCCCO1)C1CC1)C(=O)OCc1ccccc1` (stereo not given in full) the Activity (Mus musculus [1]) was 21.83%, the Activity (Mus musculus [2]) was 21.08% and the Activity (Mus musculus [3]) was 25.79%. It also gave an Activity (Mus musculus [4]) of 34.85%, an Activity (Mus musculus [5]) of 30.14% and an Activity (Mus musculus [6]) of 5.65%.

For `O=C(O)CN(c1nc(Cl)nc2c1ncn2C1CCCCO1)C1CC1` (stereo not given), the Activity (Mus musculus [1]) was 5.21%, the Activity (Mus musculus [2]) was 3.12% and the Activity (Mus musculus [3]) was 7.68%. It also gave an Activity (Mus musculus [4]) of 15.24%, an Activity (Mus musculus [5]) of 8.22% and an Activity (Mus musculus [6]) of 3.41%.

`C[C@H](NC(=O)CN(c1nc(Cl)nc2c1ncn2C1CCCCO1)C1CC1)C(=O)OCc1ccccc1` (stereo not given in full) was tested, and the Activity (Mus musculus [1]) was 55.91%, the Activity (Mus musculus [7]) was 25.34% and the Activity (Mus musculus [8]) was 43.25%. It also gave an Activity (Mus musculus [9]) of 60.11%, an Activity (Mus musculus [2]) of 6.01% and an Activity (Mus musculus [10]) of 8.09%. It also gave an Activity (Mus musculus [11]) of 10%, an Activity (Mus musculus [12]) of 10% and an Activity (Mus musculus [13]) of 39.81%. It also gave an Activity (Mus musculus [14]) of 18.03%, an Activity (Mus musculus [15]) of 37.16% and an Activity (Mus musculus [16]) of 12%. For the same compound, the Activity (Mus musculus [17]) was 11.03%, the Activity (Mus musculus [18]) was 11.43% and the Activity (Mus musculus [19]) was 11.2%. It also gave an Activity (Mus musculus [3]) of 25.3%, an Activity (Mus musculus [4]) of 53% and an Activity (Mus musculus [5]) of 32.06%. For the same compound, the Activity (Mus musculus [20]) was 21.56%, the Activity (Mus musculus [21]) was 30.44% and the Activity (Mus musculus [22]) was 25.6%. It also gave an Activity (Mus musculus [23]) of 11%, an Activity (Mus musculus [6]) of 5.96% and an Activity (Mus musculus [24]) of 58.18%.

`NC(=O)C[C@H](NC(=O)CN(c1nc(Cl)nc2c1ncn2C1CCCCO1)C1CC1)C(=O)OCc1ccccc1` (stereo not given in full) gave an Activity (Mus musculus [1]) of 34.53%, an Activity (Mus musculus [2]) of 21.71% and an Activity (Mus musculus [3]) of 29.15%. It also gave an Activity (Mus musculus [4]) of 30.54%, an Activity (Mus musculus [5]) of 34.95% and an Activity (Mus musculus [6]) of 15.45%.

Work on `NC(=O)CC[C@H](NC(=O)CN(c1nc(Cl)nc2c1ncn2C1CCCCO1)C1CC1)C(=O)OCc1ccccc1` (stereo not given in full) yielded an Activity (Mus musculus [1]) of 46.96%, an Activity (Mus musculus [2]) of 10.72% and an Activity (Mus musculus [3]) of 22.34%. For the same compound, the Activity (Mus musculus [4]) was 39.4%, the Activity (Mus musculus [5]) was 37.82% and the Activity (Mus musculus [6]) was 7.71%.

In the case of `O=C(CN(c1nc(Cl)nc2c1ncn2C1CCCCO1)C1CC1)N[C@@H](Cc1cnc[nH]1)C(=O)OCc1ccccc1` (stereo not given in full), the Activity (Mus musculus [1]) is reported as 24.98%, the Activity (Mus musculus [2]) is reported as 5.31% and the Activity (Mus musculus [3]) is reported as 10.16%. It also gave an Activity (Mus musculus [4]) of 36.43%, an Activity (Mus musculus [5]) of 14.45% and an Activity (Mus musculus [6]) of 4.38%.

With `CC[C@H](C)[C@H](NC(=O)CN(c1nc(Cl)nc2c1ncn2C1CCCCO1)C1CC1)C(=O)OCc1ccccc1` (stereo not given in full) the Activity (Mus musculus [1]) was 25.56%, the Activity (Mus musculus [2]) was 16.43% and the Activity (Mus musculus [3]) was 20.42%. For the same compound, the Activity (Mus musculus [4]) was 27.35%, the Activity (Mus musculus [5]) was 22.57% and the Activity (Mus musculus [6]) was 9.15%.

Work on `CC(C)C[C@H](NC(=O)CN(c1nc(Cl)nc2c1ncn2C1CCCCO1)C1CC1)C(=O)OCc1ccccc1` (stereo not given in full) yielded an Activity (Mus musculus [1]) of 26.2%, an Activity (Mus musculus [2]) of 6.47% and an Activity (Mus musculus [3]) of 12.79%. It also gave an Activity (Mus musculus [4]) of 34.19%, an Activity (Mus musculus [5]) of 28.22% and an Activity (Mus musculus [6]) of 0.04%.

For `CCOC(=O)CN(c1nc(Cl)nc2c1ncn2C1CCCCO1)C1CC1` (stereo not given), the Activity (Mus musculus [1]) was 9.92%, the Activity (Mus musculus [2]) was 11.85% and the Activity (Mus musculus [3]) was 14.91%. The Activity (Mus musculus [4]) was 22.64%, the Activity (Mus musculus [5]) was 13.04% and the Activity (Mus musculus [6]) was 5.33%.

For `C[C@H](NC(=O)CN)C(=O)OCc1ccccc1` (H-Gly-Ala-OBn), the Activity (Mus musculus [9]) was 12.25%, the Activity (Mus musculus [15]) was 13.45% and the Activity (Mus musculus [19]) was 13%. It also gave an Activity (Mus musculus [21]) of 13.57%, an Activity (Mus musculus [23]) of 12.99% and an Activity (Mus musculus [24]) of 13.32%.

`NCC(=O)O` [GLYCINE] gave an Activity (Mus musculus [9]) of 10.13%, an Activity (Mus musculus [15]) of 11.31% and an Activity (Mus musculus [19]) of 11.54%. The Activity (Mus musculus [21]) was 12.03%, the Activity (Mus musculus [23]) was 10.96% and the Activity (Mus musculus [24]) was 11.21%.
